# Laboratory results taken from US20110124069A1, “PRODUCTION METHOD” (priority 2008, published 2011).
# Columns and labels:
# [1] = Chemical stability of methylglyoxal; type: physicochemical
# Experimental: (§1) E. coli MG1655 wild-type or mutants inactivated in the genes gloA and gloB, respectively, were cultivated in minimal-medium with pure-glycerol (10 g/l) as source for carbon and energy containing different amounts of methylglyoxal. Tests for methylglyoxal indicated a period of at least 72 h of chemical stability. E. coli was cultivated in microtiterplates without agitation at 37° C. under a humid atmosphere. Growth was determined at OD580 48.5 h after inoculation (FIG. 1; black bars, E. coli MG1655 wild-type; grey bars, E. coli MG1655 gloA-mutant; hatched bars, E. coli MG1655 gloB-mutant).
# [2] = system: E. coli MG1655 gloB-mutant; experiment: Toxicity of methylglyoxal, growth inhibition of gloB-mutant; type: cell-based; conditions: OD580 48.5 h after inoculation
# Experimental: as §1
# E. coli MG1655 wild-type = experiment: Toxicity of methylglyoxal, growth inhibition of wild-type; type: cell-based; conditions: minimal medium with pure glycerol 10 g/l; microtiterplates, 37° C.; OD580 48.5 h after inoculation
# Experimental: as §1
# [3] = system: E. coli MG1655 gloA-mutant; experiment: Toxicity of methylglyoxal, growth inhibition of gloA-mutant; type: cell-based; conditions: gloA (glyoxylase I) mutant, especially sensitive; OD580 48.5 h after inoculation
# Experimental: as §1
# E. coli MG1655 [4] = experiment: Biomass production of E. coli MG1655 on crude or pure glycerol; type: cell-based; conditions: oxic conditions, unregulated pH, cultivation tubes
# Experimental: E. coli was cultured in a defined minimal medium that was designed to contain low levels of phosphate, since phosphate is a known inhibitor of methyglyoxal synthase. Per liter, the medium contained: E. coli strains were routinely propagated in cultivation tubes (total volume 30 ml. Inoculum 5 ml) or glass bottles sealed with rubber-stoppers (total volume 12 ml, inoculum 10 ml) for creating semi-anoxic conditions. The term “cultivation under oxic conditions” implies cultivation in non-sealed containments with agitation. Semi-anoxic in that context means cultivation of strains without agitation in medium that was prepared under oxic conditions and in closed containments, e.g. bottles sealed with rubber-stoppers upon inoculation to avoid diffusing in of external oxygen. Cultivation times varied between 2 and 5 days, for oxic and semi-anoxic conditions, respectively. […] [table]
# [5] = system: E. coli DH5alpha araB-knockout; experiment: Growth on glucose or glycerol as carbon source, control strain; type: cell-based; conditions: no plasmid, carbon source 10 g/l, 37° C., oxic, 5 days
# Excerpt: (§2) Genes gldA from E. coli encoding […], dhaK from Citrobacter freundii encoding dihydroxyacetone kinase (dhaK) and fucO from E. coli encoding propanediol-oxidoreductase were cloned in plasmid pB2araJ to give plasmid pDP_gdf. Plasmid pDP_mgdf additionally contains methylglyoxal synthase from E. coli. According to known biochemical pathways, propanediol oxidoreductase is not relevant for this example. However, we tested plasmid pDP_gdf and its derivative, pDP_mgdf for functional complementation of a glpK-knock out, since these plasmids are relevant for recombinant 1,2-PD production.
# (§3) Thus, an inducible unregulated pathway independent of the endogenous route to metabolise glycerol was established. The biomass finally obtained is equal or even higher compared to growth of a control strain (DH5alpha[…]araB) or when glucose is the substrate for growth.
# [6] = system: E. coli DH5alpha araB glpK mutant with plasmid pDP_gdf; experiment: Growth on glucose or glycerol as carbon source, glpK mutant with plasmid pDP_gdf; type: cell-based; conditions: carbon source 10 g/l, 37° C., oxic, 5 days
# Excerpt: as §2, §3
# E. coli MG1655 [7] = experiment: Potential of impurities in crude glycerol to substitute for macro-elements of minimal medium (biomass production); type: cell-based; conditions: glycerol 10 g/l, oxic, unregulated pH
# [8] = system: E. coli DH5alpha araB glpK mutant; experiment: Growth on glucose or glycerol as carbon source, glpK mutant; type: cell-based; conditions: no plasmid, carbon source 10 g/l, 37° C., oxic, 5 days
# Excerpt: as §2, §3
# [9] = system: E. coli DH5alpha araB glpK mutant with plasmid pDP_mgdf; experiment: Growth on glucose or glycerol as carbon source, glpK mutant with plasmid pDP_mgdf; type: cell-based; conditions: carbon source 10 g/l, 37° C., oxic, 5 days
# Excerpt: as §2, §3
Structure (SMILES),period of chemical stability [1],sensitivity of growth to methylglyoxal compared with wild-type [2],extracellular concentration of methylglyoxal at which inhibition of growth was observed (E. coli MG1655 wild-type) [mM],sensitivity of growth to methylglyoxal compared with wild-type [3],Biomass production [OD580] Ø (E. coli MG1655 [4]; substrate 0.63 g/l) [OD580],Biomass production [OD580] Ø (E. coli MG1655 [4]; substrate 1.25 g/l) [OD580],Biomass production [OD580] Ø (E. coli MG1655 [4]; substrate 2.5 g/l) [OD580],Biomass production [OD580] Ø (E. coli MG1655 [4]; substrate 10 g/l) [OD580],Biomass production [OD580] Ø (E. coli MG1655 [4]; substrate 20 g/l) [OD580],Biomass production [OD580] Ø (E. coli MG1655 [4]; substrate 40 g/l) [OD580],Biomass production OD580 [5] [OD580],Biomass production OD580 [6] [OD580],Biomass production [OD580] Ø (E. coli MG1655 [7]; culture broth devoid of nitrogen) [OD580],Biomass production [OD580] Ø (E. coli MG1655 [7]; culture broth devoid of none) [OD580],Biomass production [OD580] Ø (E. coli MG1655 [7]; culture broth devoid of phosphate) [OD580],Biomass production [OD580] Ø (E. coli MG1655 [7]; culture broth devoid of sulfate) [OD580],Biomass production [OD580] Ø (E. coli MG1655 [7]; culture broth devoid of trace-elements) [OD580],Biomass production OD580 [8] [OD580],Biomass production OD580 [9] [OD580]
CC(=O)C=O [methylglyoxal],at least 72 h,significantly more sensitive,≥ 2.5,significantly more sensitive,–,–,–,–,–,–,–,–,–,–,–,–,–,–,–
"OCC(O)CO [pure glycerol, glycerol]",–,–,–,–,0.5,0.6,1.2,5.0,6.0,5.7,2.0,4.5,1.1,2.5,1.2,1.0,2.4,0.1,5.5
